Results as given in PMC11801377, “A uniquely efficacious type of CFTR corrector with complementary mode of action” (Science Advances, 2024).

Columns and labels:
CFTR = tested on: CFTR; parameters: method as in earlier work; settings: ref [27] (GLPG-2737); ref [21], [26], [27] (ELX); cited from earlier work
[1] = molecular target: T1, F508del-CFTR-G550E.R553M.R555K.R1070W (3TS + RW) (Homo sapiens, UniProt P13569, DEL508-508/G550E/R1070W/R553M/R555K); experiment: CFTR immunoblotting in HEK-TREx cells expressing F508del-CFTR 3TS + RW; format: cell-based; settings: 48 hours
T1 construct: expressed in transfected cells; host or cells: T-REx HEK293
T1 sequence (P13569 with tags, fused parts or gaps DEL508-508/G550E/R553M/R555K/R1070W): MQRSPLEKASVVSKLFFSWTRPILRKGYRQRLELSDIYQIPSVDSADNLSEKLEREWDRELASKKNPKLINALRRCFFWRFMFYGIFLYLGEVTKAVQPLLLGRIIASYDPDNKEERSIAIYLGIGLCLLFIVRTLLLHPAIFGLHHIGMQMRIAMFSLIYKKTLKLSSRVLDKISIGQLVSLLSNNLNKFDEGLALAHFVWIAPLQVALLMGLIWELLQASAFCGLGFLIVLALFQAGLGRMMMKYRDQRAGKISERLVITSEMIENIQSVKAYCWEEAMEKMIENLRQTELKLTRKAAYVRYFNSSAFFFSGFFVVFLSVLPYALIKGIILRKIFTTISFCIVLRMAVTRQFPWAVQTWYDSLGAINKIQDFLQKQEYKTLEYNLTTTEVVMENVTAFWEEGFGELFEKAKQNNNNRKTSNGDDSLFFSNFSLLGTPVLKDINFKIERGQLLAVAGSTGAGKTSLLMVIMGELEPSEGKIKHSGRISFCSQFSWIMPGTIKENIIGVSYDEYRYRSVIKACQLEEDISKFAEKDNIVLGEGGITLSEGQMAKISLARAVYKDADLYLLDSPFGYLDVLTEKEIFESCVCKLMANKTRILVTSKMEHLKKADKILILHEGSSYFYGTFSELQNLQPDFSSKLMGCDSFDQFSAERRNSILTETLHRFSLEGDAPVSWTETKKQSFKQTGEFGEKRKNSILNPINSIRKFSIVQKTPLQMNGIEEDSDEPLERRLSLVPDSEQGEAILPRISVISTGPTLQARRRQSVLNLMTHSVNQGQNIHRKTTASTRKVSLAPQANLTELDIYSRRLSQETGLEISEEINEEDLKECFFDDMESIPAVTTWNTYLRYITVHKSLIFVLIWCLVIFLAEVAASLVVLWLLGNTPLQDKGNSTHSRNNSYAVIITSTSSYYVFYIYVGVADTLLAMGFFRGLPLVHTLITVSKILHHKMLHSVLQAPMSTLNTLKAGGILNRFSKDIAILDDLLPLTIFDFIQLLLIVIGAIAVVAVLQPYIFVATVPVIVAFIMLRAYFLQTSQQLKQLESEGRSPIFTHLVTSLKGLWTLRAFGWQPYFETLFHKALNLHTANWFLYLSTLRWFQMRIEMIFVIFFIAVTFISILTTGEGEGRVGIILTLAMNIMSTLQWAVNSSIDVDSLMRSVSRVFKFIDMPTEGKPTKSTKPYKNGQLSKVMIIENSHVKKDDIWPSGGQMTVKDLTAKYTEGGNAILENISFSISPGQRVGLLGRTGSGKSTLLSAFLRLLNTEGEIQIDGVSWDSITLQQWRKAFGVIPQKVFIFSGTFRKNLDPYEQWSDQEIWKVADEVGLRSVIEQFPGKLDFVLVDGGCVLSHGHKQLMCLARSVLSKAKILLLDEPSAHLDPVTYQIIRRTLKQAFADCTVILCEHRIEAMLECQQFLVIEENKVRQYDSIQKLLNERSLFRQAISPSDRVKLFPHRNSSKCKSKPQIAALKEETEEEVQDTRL
Excerpt: (§1) The human CFTR expressing HEK cell pools with the mutations described below were generated by integrase-mediated homologous recombination of the CFTR sequence into the T-REx HEK293 background (Thermo Fisher Scientific). This expression system allows the tetracycline-inducible expression of genes of interest from one defined insertion site. Parental T-REx-HEK293 cells were cultivated in growth medium: Dulbecco’s modified Eagle’s medium + GlutaMAX-I (#31966, Life Technologies), 10% dialyzed FBS (Gibco, #26400), penicillin (100 U/ml), streptomycin (100 μg/ml), hygromycin B (0.1 mg/ml; Life Technologies), blasticidin (5 μg/ml; Invitrogen, #R210-01), and 0.1 mM nonessential amino acid solution (Invitrogen, #11140-035). Recombinant T-REx-HEK-CFTR cells were generated by lipofectamine transfection (Life Technologies) of plasmids containing mutated versions of CFTR (RefSeq NM_000492) and then cultivated in selection medium [growth medium containing Geneticin (1 mg/ml) (Invitrogen, #10131-027) instead of hygromycin]. The plasmid constructs were synthetized by GENEART (Thermo Fisher Scientific) and designed with the WT CFTR intron 5 to 6 (880 nucleotides) to prevent leaky expression issues during the cloning process in bacteria. […]

F508del.K14A-CFTR = experiment: Site-directed mutagenesis immunoblotting, HEK-TREx, F508del.K14A-CFTR; format: cell-based, human; settings: 40 h, 2 μM
Excerpt: as §1

I507del CFTR = molecular target: T2, I507del CFTR (Homo sapiens, UniProt P13569, DEL507-507); experiment: CFTR correction (immunoblotting), HEK-TREx, I507del; format: cell-based; settings: 48 hours, IDOR-3 2 μM, IDOR-4 0.4 μM, TEZ 2 μM + ELX 0.4 μM
T2 construct: expressed in transfected cells; host or cells: T-REx HEK293
T2 sequence (P13569 with tags, fused parts or gaps DEL507-507): as the sequence (P13569 with tags, fused parts or gaps DEL508-508/G550E/R553M/R555K/R1070W) above, with I507F, E549G, M552R, K554R, W1069R counted along it
Excerpt: as §1

SMILES | acute effect on CFTR currents (CFTR) | effect of introduction of the RW mutation on C-band expression [1] | weaker correction by macrocycles as compared to [LUM + BAM] (F508del.K14A-CFTR) | correction of I507del (I507del CFTR)
Cc1nn(C)cc1S(=O)(=O)NC(=O)c1ccc(-n2ccc(OCC(C)(C)C(F)(F)F)n2)nc1N1C[C@@H](C)CC1(C)C [ELX, elexacaftor] | copotentiating effects | – | – | –
COc1cc(CCNC(=O)C2CC(=O)N(C)C(CC(C)C)C(=O)N3CCCCC3C(=O)NC(Cc3ccccc3)COc3ccc4ncc(F)cc4c3C(=O)N2)on1 (stereo not shown) [IDOR-3] | – | no additional effect | two- to fourfold | highly effective
